ChEMBL document CHEMBL1909514, “Imidazo[2,1-b]thiazole guanylhydrazones as RSK2 inhibitors” (Eur J Med Chem, 2011)

Assays:
[1] = test system: LOX IMVI; assay: Growth inhibition of human LOXIMVI cells after 48 hrs by SRB assay; format: functional
[2] = target: Aurora kinase A (Homo sapiens, UniProt O14965)
[3] = target: ALK tyrosine kinase receptor (Homo sapiens, UniProt Q9UM73)
[4] = test system: RPMI-8226; assay: Growth inhibition of human RPMI8226 cells after 48 hrs by SRB assay; format: functional; settings: RPMI-8226, 48 h
[5] = test system: UO-31; assay: Growth inhibition of human UO31 cells after 48 hrs by SRB assay; format: functional; settings: UO-31, 48 h
[6] = Growth inhibition of human OVCAR1 cells after 48 hrs by SRB assay; format: functional; settings: OVCAR1, 48 h
[7] = test system: MDA-MB-231; assay: Growth inhibition of human MDA-MB-231 cells after 48 hrs by SRB assay; format: functional; settings: MDA-MB-231, 48 h
[8] = test system: U-251; assay: Growth inhibition of human U251 cells after 48 hrs by SRB assay; format: functional; settings: U-251, 48 h
[9] = read-out: pLC50 (the source's name) (converted)

ALK tyrosine kinase receptor, sequence (Q9UM73 whole entry): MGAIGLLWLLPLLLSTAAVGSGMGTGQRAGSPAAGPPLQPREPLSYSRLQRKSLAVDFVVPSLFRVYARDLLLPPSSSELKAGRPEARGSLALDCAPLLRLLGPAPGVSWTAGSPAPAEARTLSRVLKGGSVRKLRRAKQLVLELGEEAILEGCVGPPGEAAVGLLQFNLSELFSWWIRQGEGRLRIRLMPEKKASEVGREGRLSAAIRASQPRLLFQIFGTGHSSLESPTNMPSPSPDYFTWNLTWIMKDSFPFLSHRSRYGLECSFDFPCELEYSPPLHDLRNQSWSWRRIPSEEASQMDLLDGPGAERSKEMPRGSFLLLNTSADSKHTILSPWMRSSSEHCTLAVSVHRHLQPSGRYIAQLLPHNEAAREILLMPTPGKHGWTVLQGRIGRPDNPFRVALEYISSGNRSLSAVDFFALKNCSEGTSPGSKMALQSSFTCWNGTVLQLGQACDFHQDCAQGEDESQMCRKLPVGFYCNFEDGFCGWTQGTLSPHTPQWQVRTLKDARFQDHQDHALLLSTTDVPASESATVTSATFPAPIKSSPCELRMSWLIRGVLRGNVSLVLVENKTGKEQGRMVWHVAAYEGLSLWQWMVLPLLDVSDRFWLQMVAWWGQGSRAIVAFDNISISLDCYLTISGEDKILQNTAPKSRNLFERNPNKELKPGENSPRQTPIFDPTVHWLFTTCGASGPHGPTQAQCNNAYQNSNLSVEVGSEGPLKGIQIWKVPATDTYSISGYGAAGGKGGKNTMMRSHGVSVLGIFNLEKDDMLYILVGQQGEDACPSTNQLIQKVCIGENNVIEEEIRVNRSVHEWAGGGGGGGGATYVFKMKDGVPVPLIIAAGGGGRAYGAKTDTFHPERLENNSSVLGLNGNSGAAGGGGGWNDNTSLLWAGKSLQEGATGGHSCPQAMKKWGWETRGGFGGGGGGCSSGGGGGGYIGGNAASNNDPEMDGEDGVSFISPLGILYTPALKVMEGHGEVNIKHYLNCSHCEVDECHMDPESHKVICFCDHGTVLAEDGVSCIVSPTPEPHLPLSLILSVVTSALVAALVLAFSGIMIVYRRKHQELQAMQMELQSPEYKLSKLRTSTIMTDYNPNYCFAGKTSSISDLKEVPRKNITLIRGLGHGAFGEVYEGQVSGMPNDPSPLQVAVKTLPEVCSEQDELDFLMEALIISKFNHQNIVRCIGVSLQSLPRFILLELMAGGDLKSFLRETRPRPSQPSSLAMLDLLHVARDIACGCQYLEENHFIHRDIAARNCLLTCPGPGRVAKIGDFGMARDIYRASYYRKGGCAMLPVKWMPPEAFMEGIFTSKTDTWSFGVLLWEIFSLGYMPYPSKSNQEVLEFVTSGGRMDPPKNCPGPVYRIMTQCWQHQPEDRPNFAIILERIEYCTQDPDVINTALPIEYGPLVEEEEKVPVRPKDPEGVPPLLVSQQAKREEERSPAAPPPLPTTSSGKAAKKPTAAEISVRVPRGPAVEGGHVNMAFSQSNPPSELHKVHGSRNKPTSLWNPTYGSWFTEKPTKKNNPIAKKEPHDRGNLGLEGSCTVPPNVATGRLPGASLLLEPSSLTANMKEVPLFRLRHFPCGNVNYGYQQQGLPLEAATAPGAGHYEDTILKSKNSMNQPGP
Aurora kinase A, sequence (O14965 whole entry): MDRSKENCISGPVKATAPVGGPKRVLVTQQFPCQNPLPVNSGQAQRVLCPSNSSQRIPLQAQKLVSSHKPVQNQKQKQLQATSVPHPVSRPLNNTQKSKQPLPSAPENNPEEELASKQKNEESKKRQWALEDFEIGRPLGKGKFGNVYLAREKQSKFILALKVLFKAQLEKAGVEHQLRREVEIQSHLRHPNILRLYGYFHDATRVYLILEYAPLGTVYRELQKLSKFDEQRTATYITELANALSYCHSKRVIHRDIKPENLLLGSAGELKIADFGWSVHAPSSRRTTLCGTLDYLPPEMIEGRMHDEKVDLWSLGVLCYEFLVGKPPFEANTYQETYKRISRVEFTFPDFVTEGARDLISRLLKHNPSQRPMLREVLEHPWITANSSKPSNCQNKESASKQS

N=C(N)N/N=C\c1c(-c2ccc([N+](=O)[O-])cc2)nc2sc(Br)cn12
GI50 [1]: 191 nM
TGI ([1]; read-out: pTGI (converted)): 417 nM
IC50 [2]: > 20000 nM
IC50 [3]: > 20000 nM
GI50 [4]: 178 nM
TGI ([4]; read-out: pTGI (converted)): 417 nM
GI50 [5]: 174 nM
CC50 [5, 9]: 676 nM
TGI ([5]; read-out: pTGI (converted)): 355 nM
GI50 [6]: 186 nM
CC50 [6, 9]: 661 nM
TGI ([6]; read-out: pTGI (converted)): 347 nM
GI50 [7]: 275 nM
CC50 [7, 9]: 3890 nM
TGI ([7]; read-out: pTGI (converted)): 851 nM
GI50 [8]: 195 nM
CC50 [8, 9]: > 100000 nM
